From patent US20230263822A1, “MODULATION OF FACTOR 11 EXPRESSION” (Ionis Pharmaceuticals, Inc., priority 2008, published 2023)
e = 2'-O-(2-methoxyethyl) (MOE); d = 2'-deoxy (DNA)

What was measured:
[1] = parameters: species or system CD1 mice; details: mouse, in vivo, sc, 50 mg/kg
Description: The concentration of the full-length oligonucleotide was measured. The method used is a modification of previously published methods (Leeds et al., 1996; Geary et al., 1999) which consist of a phenol-chloroform (liquid-liquid) extraction followed by a solid phase extraction. An internal standard (ISIS 355868, a 27-mer 2′-O-methoxyethyl modified phosphorothioate oligonucleotide, […], designated herein as SEQ ID NO: 270) was added prior to extraction. […] The results are presented in Table 85 expressed as μg/g liver tissue.

[2] = test system: human Factor 11 mRNA; assay: Dose-dependent antisense inhibition of human Factor 11 in HepG2 cells, lipofectin 9.375-150 nM (Example 2); assay type: cell-based; details: ~16 h
Description: Cells were plated at a density of 10,000 cells per well and transfected using lipofectin reagent with 9.375 nM, 18.75 nM, 37.5 nM, 75 nM, and 150 nM concentrations of antisense oligonucleotide, as specified in Table 3. After a treatment period of approximately 16 hours, RNA was isolated from the cells and Factor 11 mRNA levels were measured by quantitative real-time PCR. Human Factor 11 primer probe set RTS 2966 (forward sequence: […], incorporated herein as SEQ ID NO: 3; reverse sequence: […], incorporated herein as SEQ ID NO: 4; probe sequence: TTGTCTACTGAAGCACACCCAAACAGGGAX, incorporated herein as SEQ ID NO: 5) was used to measure mRNA levels. Factor 11 mRNA levels were adjusted according to total RNA content, as measured by RIBOGREEN. Results are presented as percent inhibition of Factor 11, relative to untreated control cells.

[3] = parameters: species or system Sprague-Dawley rats; details: rat, in vivo, sc, 20 mg/kg
Description: The concentration of the full-length oligonucleotide as well as the total oligonucleotide concentration (including the degraded form) was measured. The method used is a modification of previously published methods (Leeds et al., 1996; Geary et al., 1999) which consist of a phenol-chloroform (liquid-liquid) extraction followed by a solid phase extraction. An internal standard (ISIS 355868, a 27-mer 2′-O-methoxyethyl modified phosphorothioate oligonucleotide, […], designated herein as SEQ ID NO: 270) was added prior to extraction. […] The results are presented in Tables 91 and 92, expressed as μg/g liver or kidney tissue. Half-lives were then calculated using WinNonlin software ([…]).

[4] = Viscosity of ISIS antisense oligonucleotides, micro-viscometer at 25 °C (Example 47); assay type: physicochemical; details: for Concentration: concentration of the viscosity sample, UV reading at 260 nM at 85° C.; for Viscosity: in water, micro-viscometer at 25° C., at the concentration of the same line
In short: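 Oligonucleotide (32-35 mg) was dissolved in 120 μL water by heating at 50° C, and viscosity was measured by micro-viscometer at 25° C. Concentration was checked by UV at 260 nm at 85° C on a dilution in water. Screening cut-off: >40 cP at 165-185 mg/mL.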

[5] = test system: human Factor 11 mRNA; assay: Antisense inhibition of human Factor 11 in HepG2 cells, lipofectin, 75 nM (Example 1); assay type: cell-based; details: 75 nM antisense oligonucleotide, ~24 h, relative to untreated control cells, gapmers targeted to SEQ ID NO: 1
In short: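 HepG2 cells transfected via lipofectin with 75 nM antisense oligonucleotide (5-10-5 MOE gapmers, 20-mers, phosphorothioate, 5-methylcytidines), treated ~24 h. Factor 11 mRNA quantified by real-time PCR, normalised to RIBOGREEN total RNA; percent inhibition versus untreated cells.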

[6] = test system: human Factor 11 mRNA; assay: Antisense inhibition of human Factor 11 in HepG2 cells, electroporation, 8,000 nM (Example 30); assay type: cell-based; details: electroporation, 8,000 nM antisense oligonucleotide
In short: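 HepG2 cells electroporated with 8,000 nM 5-10-5, 5-8-5 or 6-8-6 MOE gapmers (phosphorothioate, 5-methylcytidine), ~24 h. Factor 11 mRNA quantified by qRT-PCR, normalised to RIBOGREEN total RNA. Reported as percent inhibition versus untreated cells.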

[7] = rat, in vivo, sc, 50 mg/kg
[8] = rat, in vivo, sc, 50 mg/kg; remark: listed apart in the source
[9] = rat, in vivo, sc, 50 mg/kg; remark: listed apart in the source
[10] = test system: human Factor 11 mRNA; assay: Dose-dependent inhibition of human Factor 11 in HepG2 cells, electroporation 123.46-10,000 nM (Example 31); assay type: cell-based
In short: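 HepG2 cells were electroporated with antisense oligonucleotide at 123.46, 370.37, 1,111.11, 3,333.33 and 10,000 nM and harvested about 16 hours later. Factor 11 mRNA was quantified by qRT-PCR and normalised to total RNA (RIBOGREEN). Inhibition is expressed relative to untreated cells.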

[11] = test system: human Factor 11 mRNA; assay: Antisense inhibition of human Factor 11 in HepG2 cells by microwalk gapmers, lipofectin, 75 nM (Example 3); assay type: cell-based; details: HepG2 cells, lipofectin, gapmers targeted to nucleobases 1275 to 1318 of SEQ ID NO: 1
In short: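 HepG2 cells (10,000/well) were transfected via lipofectin with 75 nM 20-mer MOE gapmers (phosphorothioate, 5-methyl-C) for about 24 h. Factor 11 mRNA was measured by qRT-PCR, normalized to RIBOGREEN total RNA, and given as percent inhibition versus untreated cells.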

Row | Substance | BUN [7] [mg/dL] | Creatinine [7] [mg/dL] | ALT [8] [IU/L] | AST [8] [IU/L] | Albumin [8] | Bilirubin [8] [mg/dL] | HCT [9] [%] | MCH [9] | MCHC [9] [%] | MCV [9] | Platelets [9] | RBC [9] | WBC [9] [nL⁻¹] | hemoglobin [9] [g/dL] | lymphocytes [9] [%] | monocytes [9] [%] | neutrophils [9] [%] | further results
1 | 413481 (antisense GGTGCACAGTTTCTGGCAGG; 5-10-5 MOE gapmer, further chemistry not given here) [compound 413481] | – | – | – | – | – | – | – | – | – | – | – | – | – | – | – | – | – | Half-Life in the liver [1]: 20.6 days; percent inhibition of Factor 11 at 9.375 nM ([2]; 9.375 nM): 22%; percent inhibition of Factor 11 at 18.75 nM ([2]; 18.75 nM): 38%; percent inhibition of Factor 11 at 37.5 nM ([2]; 37.5 nM): 56%; percent inhibition of Factor 11 at 75 nM ([2]; 75 nM): 67%; percent inhibition of Factor 11 at 150 nM ([2]; 150 nM): 83%; IC50 [2]: 32 nM; Half-life of ISIS oligonucleotides in the liver and kidney [3]: 21 days; Concentration [4]: 144 mg/mL; Viscosity [4]: 23 cP; % inhibition [5]: 86%; Percent inhibition of human Factor 11 mRNA levels [6]: 82%
2 | ISIS 416826: 5-10-5 MOE gapmer ATGCCCTTCATGTCTAGGTC (sugars from the 5' end e5 d10 e5, backbone and methylation of C not given here) | 25 | 6 | 611 | 104 | 6 | 115 | 7 | 3 | 4 | 6 | 11 10^3/μL | 5 | 7 | 7 | 5 | 7 | 30 | –
3 | ISIS 416999: MOE gapmer, nucleobases 1275 to 1318 of SEQ ID NO: 1 (Table 8) (antisense GCACAGTTTCTGGCAGGCCT; MOE gapmer, wing and gap sizes not given here) | 2 | 4 | 92 | 28 | 5 | 54 | 5 | 3 | 1 | 2 | 12 10^3/μL | 5 | 12 | 6 | 3 | 20 | 23 | –
4 | 416851 (antisense GTGCACAGTTTCTGGCAGGC; 5-10-5 gapmer, further chemistry not given here) [compound 416851] | – | – | – | – | – | – | – | – | – | – | – | – | – | – | – | – | – | Half-Life in the liver [1]: 23.8 days; Half-life of ISIS oligonucleotides in the liver and kidney [3]: 24 days; Concentration [4]: 187 mg/mL; Viscosity [4]: 26 cP; Percent inhibition of Factor 11 mRNA at 123.47 nM ([10]; electroporation, 123.47 nM, approx. 16 hours, relative to untreated control cells): 13%; Percent inhibition of Factor 11 mRNA at 370.37 nM ([10]; electroporation, 370.37 nM, approx. 16 hours, relative to untreated control cells): 35%; Percent inhibition of Factor 11 mRNA at 1,111.11 nM ([10]; electroporation, 1,111.11 nM, approx. 16 hours, relative to untreated control cells): 36%; Percent inhibition of Factor 11 mRNA at 3,333.33 nM ([10]; electroporation, 3,333.33 nM, approx. 16 hours, relative to untreated control cells): 64%; Percent inhibition of Factor 11 mRNA at 10,000.0 nM ([10]; electroporation, 10,000.0 nM, approx. 16 hours, relative to untreated control cells): 72%; IC50 ([10]; electroporation, Factor 11 mRNA expression): 1500 nM; % inhibition [11]: 88%; Percent inhibition of human Factor 11 mRNA levels [6]: 89%
5 | ISIS 416925: MOE gapmer, nucleobases 1275 to 1318 of SEQ ID NO: 1 (Table 8) (antisense GGTGCACAGTTTCTGGCAGG; MOE gapmer, wing and gap sizes not given here) | 7 | 5 | 102 | 20 | 5 | 13 | 8 | 2 | 4 | 5 | 8 10^3/μL | 6 | 24 | 6 | 4 | 23 | 20 | –
6 | ISIS 416892: 3-14-3 MOE gapmer GCCCTTCATGTCTAGGTCCA (sugars from the 5' end e3 d14 e3, backbone and methylation of C not given here) | 188 | 1 | 113 | 183 | 8 | 1 | 13 | 2 | 0 | 1 | 66 10^3/μL | 12 | 68 | 14 | 18 | 58 | 92 | –
7 | ISIS 417003: MOE gapmer, nucleobases 1275 to 1318 of SEQ ID NO: 1 (Table 8) (antisense TGGTGCACAGTTTCTGGCAG; MOE gapmer, wing and gap sizes not given here) | 9 | 9 | 138 | 23 | 6 | 50 | 8 | 4 | 4 | 6 | 19 10^3/μL | 11 | 83 | 11 | 3 | 6 | 17 | –
8 | ISIS 416825: 5-10-5 MOE gapmer GCCCTTCATGTCTAGGTCCA (sugars from the 5' end e5 d10 e5, backbone and methylation of C not given here) | 7 | 17 | 89 | 17 | 2 | 4 | 2 | 2 | 4 | 4 | 6 10^3/μL | 2 | 22 | 2 | 3 | 15 | 25 | –
